From patent US11084852B2, “Ubiquitin interacting motif peptides as therapeutics” (OKLAHOMA MEDICAL RESEARCH FOUNDATION, priority 2015, dated 2021)
Positions of bridges follow the written chain, without caps; N, C: chain ends. Non-standard residues stand in square brackets, D forms with d. Residues, ends and D or L forms follow the SMILES beside them. No end group written: not given here. *: point of attachment. FITC = O=C1OC2(c3ccc(O)cc3Oc3cc(O)ccc32)c2ccc(NC(=S)*)cc21

Assays:
HUVEC^αvβ3 cells = assay: Targeting and localization of FITC-conjugated peptides in cultured HUVEC; format: cell-based, human
Method: FIGS. 6A-E. Targeting and localization of UPI peptides in cultured HUVEC^αvβ3. (FIGS. 6A-C) HUVECs were co-transfected with integrins αv and β3 plasmids by electroporation (Nucleofactor device, Lonza), generating HUVEC^αvβ3 cells. 10 μM FUPI (FITC-conjugated UPI) peptide was added to HUVEC^αvβ3 cells or pcDNA transfected control HUVECs.
To ensure targeting specificity and efficacy of the UPI, the inventors treated HUVEC overexpressing αvβ3 integrin (HUVEC^αvβ3) with FITC-conjugated UPI (FUPI) or AP-UIM (FITC-AP-UIM) (Table 2). Normal quiescent endothelial cells, such as HUVEC, express endogenous αvβ3 integrin. However, compared to tumor endothelial cells this expression is considerably lower. By overexpressing αvβ3 integrin in HUVEC, the inventors distinguished peptide targeting to endothelial cells in quiescent versus tumor vasculature. Overexpression of αvβ3 integrin was monitored by FACS and Western blotting (FIGS. 6A-C). […] Given the selective nature of the UPI peptide in vitro, the inventors next validated its tumor vascular-targeting efficacy in vivo after intravenous (i.v.) administration into Lewis lung carcinoma (LLC) and B16F10 (B16) melanoma subcutaneous tumor-bearing mice. […]

[1] = Kinetic analysis and FUPI peptide distribution in vivo in LLC or B16 tumor-bearing mice
Method: FIGS. 7A-C. Pharmacokinetics of UPI peptide in ex vivo plasma and tumor vessels. (FIG. 7A) Biotinylated-UPI peptide was incubated in ex vivo plasma at 1 μg/ml concentration. The remaining biotin-labeled UPI peptide was quantified by ELISA as indicated at different time point, n=5; (FIG. 7B) FUPI peptide (10 mg/kg, one injection) was i.v.-injected into mice bearing B16 tumors. A time course was scheduled to sacrifice mice as indicated from 2-48 hrs.
FIG. 8. FUPI peptide specifically homes to tumors. B16 tumor-bearing mice were sacrificed at 24-hr time point after control (PBS) or FUPI peptide injection (10 mg/kg, i.v-injection). Tumor and major organs were stained with CD31 (red) and imaged at red channel (CD31), blue channel (DAPI) and green channel (FUPI). Note that green (FITC) is seen only in tumors. […] Other major organs (liver, lung, heart, spleen, kidney, colon, brain, etc) are free of green color, n=4; scale bar: 200 μm.
LLC or B16 tumor-bearing mice were intravenously injected with 20 mg/kg FUPI peptide then sacrificed at different time points. […] FITC and CD31 fluorescent intensity was quantified using Metamorph software. The number of FUPI and CD31-positive vessels were counted and presented as a percentage of FUPI-positive vessels-to-total CD31-positive vessels.

[2] = Toxicity analysis of UPI peptide, plasma biomarkers; format: in vivo, mice; design: ALB: unit not given here; conditions: for ALB: wild type mice, i.v. every second day up to 3 months
Method: Age and gender matched wild type mice were intravenously injected with PBS (Control) or different concentration of UPI peptide every second day for up to 3 months. Plasma biochemical parameters were evaluated by the UT-Southwestern Medical Center Core Facility in Dallas, Tex.

[3] = system: Lewis lung carcinoma (LLC) tumors; assay: Subcutaneous LLC tumor model; design: species or system mice; conditions: mouse, in vivo
Source text: C56BL/6 mice and TRAMP prostate cancer models were obtained from Jackson Laboratory. SCID/NOD immune-deficient mice were purchased from Charles River Labs (Wilmington, Mass.). WT-Flk, EC-iDKO, EC-iDKO-Flk and EC-iDKO-Notch mice were generated by crossing conditional double knockout mice (EC-iDKO) with Flk-1^fl/fl or NICD^LSL mice as described in (FIGS. 13A-D) (Pasula et al., 2012; Tessneer et al., 2014). All animal protocols have been approved by the IACUC in Oklahoma Medical Research Foundation. Animal tumor models were established as follows: • (1) Subcutaneous Tumor Models (LLC, melanoma B16 and glioma U87/SCID): LLC, melanoma and glioma tumor models were established as previously described (Pasula et al., 2012). Synthetic peptides were administered at 10 mg/kg intravenously every second day beginning after small tumors were established (20-50 mm^3; approximately 12 days post implantation). Tumor volumes were monitored every other day until euthanized following IACUC tumor scoring system. • (2) TRAMP Prostate Tumor Model (Transgenic Adenocarcinoma of Mouse Prostate). […] Mortality rates were recorded. Prostate tumors were analyzed by weighing genitourinary tract (GU), H&E staining, IHC, IF staining and Western blotting as previously described (Pasula et al., 2012; Tessneer et al., 2013). Lymph nodes, lung, liver, spleen and bones were similarly analyzed for metastasis. • (3) B16 Melanoma Metastasis Model. […] Mice were sacrificed after 5 weeks and tissues (including lung, liver and lymph nodes, etc.) were harvested and analyzed for metastasis by gross morphology, H&E, IHC or IF staining, as well as Western blotting. • (4) Orthotopical Glioma Tumor Models (U87/SCID and GL261/C56BL/6). […] Tumors were monitored by MRI as previously described (Pasula et al., 2012). […] Tumor volume was analyzed by MRI every other day until the mice died or were euthanized following IACUC tumor scoring system. Mortality rates were recorded. […]

[4] = cited from earlier work
gliomas = conditions: before, at the time of or after tumor implantation; cited from earlier work
atherosclerosis lesion = assay: Carotid atherosclerotic mouse model; format: in vivo
Source text: (§1) FIGS. 25A-E. Therapeutic potential in atherosclerosis animal models. (FIG. 25A) Targeting lyp-UIM peptide to atheroma by FITC conjugated peptide. (FIG. 25B). […] (FIG. 25C) Quantification for FIG. 25B, red bars represent lesion area by percentile; green bars represent macrophage percentile in different treatment. P values is indicated in the graphs.

atherosclerotic lesion = assay: ApoE-/- mouse atherosclerosis model; conditions: in vivo
Source text: as §1

With “FUPI: FITC-conjugated UPI peptide ({FITC}-[dS]G[dE][dE][dE][dL][dQ][dL][dQ][dL][dA][dL][dA][dM][dS][dK][dE][dE][dM]G[dC][dI][dK][dS][dK][dR][dK][dC][dR]G[dD][dK]G[dP][dD][dC]; disulfide 28-36 (inferred); not fully specified)” the “peptide accumulation in HUVEC^αvβ3 versus HUVEC” value (HUVEC^αvβ3 cells; FITC-conjugated peptide, 10 μM, 15 hr) was “accumulated selectively in HUVEC^αvβ3, but not in HUVEC alone”, the “intracellular localization of accumulated peptide” value (HUVEC^αvβ3 cells; HUVEC^αvβ3) was “highly enriched at the plasma membrane” and the “retention within vessels of tumors after injection” value ([1]; B16 melanoma tumors, one i.v. injection) was “up to 48 hours”. For the same compound, the “tissue distribution after intravenous injection” value ([1]; subcutaneous LLC or B16 melanoma tumors) was “significant concentration within tumor vasculature, but not other major organs”.

For CC[C@@H](C)[C@@H](NC(=O)[C@@H](CS)NC(=O)CNC(=O)[C@@H](CCSC)NC(=O)[C@@H](CCC(=O)O)NC(=O)[C@@H](CCC(=O)O)NC(=O)[C@@H](CCCCN)NC(=O)[C@@H](CO)NC(=O)[C@@H](CCSC)NC(=O)[C@@H](C)NC(=O)[C@@H](CC(C)C)NC(=O)[C@@H](C)NC(=O)[C@@H](CC(C)C)NC(=O)[C@@H](CCC(N)=O)NC(=O)[C@@H](CC(C)C)NC(=O)[C@@H](CCC(N)=O)NC(=O)[C@@H](CC(C)C)NC(=O)[C@@H](CCC(=O)O)NC(=O)[C@@H](CCC(=O)O)NC(=O)[C@@H](CCC(=O)O)NC(=O)CNC(=O)[C@H](N)CO)C(=O)N[C@H](CCCCN)C(=O)N[C@H](CO)C(=O)N[C@H](CCCCN)C(=O)N[C@H](CCCNC(=N)N)C(=O)N[C@H](CCCCN)C(=O)N[C@@H]1CSSC[C@H](C(=O)O)NC(=O)[C@@H](CC(=O)O)NC(=O)[C@H]2CCCN2C(=O)CNC(=O)[C@@H](CCCCN)NC(=O)[C@@H](CC(=O)O)NC(=O)CNC(=O)[C@@H](CCCNC(=N)N)NC1=O [UPI peptide] (H-[dS]G[dE][dE][dE][dL][dQ][dL][dQ][dL][dA][dL][dA][dM][dS][dK][dE][dE][dM]G[dC][dI][dK][dS][dK][dR][dK][dC][dR]G[dD][dK]G[dP][dD][dC]-OH; disulfide 28-36; N-terminus and C-terminus assumed), the ALT ([2]; 10 mg/kg) was 63.5 ± 10.8 U/L, the AST ([2]; 10 mg/kg) was 62.3 ± 3.6 U/L and the BUN ([2]; 10 mg/kg) was 18.0 ± 0.8 mg/dL. For the same compound, the CK ([2]; 10 mg/kg) was 163.5 ± 50.0 U/L, the CREA ([2]; 10 mg/kg) was 0.173 ± 0.02 mg/dL and the GGT ([2]; 10 mg/kg) was under 5 U/L. It also gave an LDH ([2]; 10 mg/kg) of 397.8 ± 26.0 U/L, a TBIL ([2]; 10 mg/kg) of under 0.01 mg/dL and an ALT ([2]; 25 mg/kg) of 65.3 ± 4.0 U/L. For the same compound, the AST ([2]; 25 mg/kg) was 55.0 ± 5.3 U/L, the BUN ([2]; 25 mg/kg) was 18.7 ± 2.5 mg/dL and the CK ([2]; 25 mg/kg) was 165.7 ± 8.6 U/L. It also gave a CREA ([2]; 25 mg/kg) of 0.160 ± 0.02 mg/dL, a GGT ([2]; 25 mg/kg) of under 5 U/L and an LDH ([2]; 25 mg/kg) of 365.7 ± 77.9 U/L. For the same compound, the TBIL ([2]; 25 mg/kg) was under 0.01 mg/dL, the ALT ([2]; 50 mg/kg) was 71.7 ± 6.0 U/L and the AST ([2]; 50 mg/kg) was 52.0 ± 4.4 U/L. The BUN ([2]; 50 mg/kg) was 21.0 ± 2.0 mg/dL, the CK ([2]; 50 mg/kg) was 153.7 ± 33.9 U/L and the CREA ([2]; 50 mg/kg) was 0.180 ± 0.02 mg/dL. It also gave a GGT ([2]; 50 mg/kg) of under 5 U/L, an LDH ([2]; 50 mg/kg) of 481.5 ± 12.1 U/L and a TBIL ([2]; 50 mg/kg) of under 0.01 mg/dL. For the same compound, the “kidney, liver or muscle functions (biomarker analysis, PBS vs UPI peptide-treated mice)” value ([2]; Table 3) was “no statistical differences in kidney, liver or muscle functions”, the ALB ([2]; 10 mg/kg) was 1.98 ± 0.1 and the ALB ([2]; 25 mg/kg) was 2.0 ± 0.1. It also gave an ALB ([2]; 50 mg/kg) of 2.2 ± 0.2.

For “QEEEELQLALALSQSEAEEKMGCIKSKRKCRGDKGPDC [Hrs-UIM]”, the “tumor growth in LLC tumor-bearing mice, variant peptides” value [3] was “neither Eps15-UIM nor Hrs-UIM peptides affected tumor growth”.

With “SEEDMIEWAKRESEREEEQRMGCIKSKRKCRGDKGPDC [Eps15-UIM]” the “tumor growth in LLC tumor-bearing mice, variant peptides” value [3] was “neither Eps15-UIM nor Hrs-UIM peptides affected tumor growth”.

For CC(C)(C)[N+]([O-])=Cc1ccccc1 [PBN, phenyl N-tert-butyl nitrone], the tissue distribution ([4]; rat, in vivo) is listed as “readily and rapidly distributed almost equally to all tissues”, the half-life ([4]; rats) is listed as “about 132 minutes” and the “tumor development (gliomas)” value (gliomas) is listed as “able to control tumor development”.

With “CGNKRTRGCSGEEELQLQLALAMSKEE [Lyp-UIM peptide]” the macrophage infiltration (atherosclerosis lesion; mouse, in vivo) was “reduced macrophage infiltration”, the atherosclerosis lesion development (atherosclerosis lesion; western diet) was “greatly reduced atherosclerosis lesion development” and the “atherosclerotic lesion development (arch)” value (atherosclerotic lesion) was “significantly attenuated atherosclerotic lesion development (arch)”. The “atherosclerotic lesion development (root)” value (atherosclerotic lesion) was “significantly attenuated atherosclerotic lesion development (root)”.
